Results reported in ChEMBL document CHEMBL4825751, “Design, synthesis, and antitumor activity evaluation of steroidal oximes” (Bioorg Med Chem, 2021).
Active and inactive are the calls of the source. No cut-off for these calls is given here.

Key:
[1] = system: NCI-H1299; assay: Anticancer activity against human H1299 cells assessed as inhibition of cell proliferation measured after 72 hrs by MTT assay; format: functional, cell-based; details: NCI-H1299, 72 h
[2] = system: PC-3; assay: Anticancer activity against human PC-3 cells assessed as inhibition of cell proliferation measured after 72 hrs by MTT assay; format: functional, cell-based; details: PC-3, 72 h
[3] = system: HepG2; assay: Anticancer activity against human HepG2 cells assessed as inhibition of cell proliferation measured after 72 hrs by MTT assay; format: functional, cell-based; details: HepG2, 72 h
[4] = system: WiDr; assay: Anticancer activity against human WiDr cells assessed as inhibition of cell proliferation measured after 72 hrs by MTT assay; format: functional, cell-based
[5] = system: PC-3; assay: Induction of apoptosis in human PC-3 cells assessed as necrotic cells at IC50 concentration measured after 72 hrs by annexin-V and propidium iodide staining based flow cytometry analysis; format: functional
[6] = system: PC-3; assay: Antiproliferative activity against human PC-3 cells assessed as reduction in cell viability at IC50 concentration measured after 72 hrs by Annexin-V and propidium iodide staining based flow cytometry analysis; format: functional
[7] = system: CCD-841CoN; assay: Anticancer activity against human CCD841 CoN cells assessed as inhibition of cell proliferation measured after 72 hrs by MTT assay; format: cell-based
[8] = system: PC-3; assay: Induction of oxidative stress in human PC-3 cells assessed as increase in superoxide anion level at 15 uM incubated for 24 hrs by DHE based red fluorescence assay; format: functional, cell-based
[9] = system: PC-3; assay: Induction of oxidative stress in human PC-3 cells assessed as increase in peroxide level at IC50 concentration incubated for 24 hrs by DCFH2 based green fluorescence assay; format: functional, cell-based
[10] = system: PC-3; assay: Induction of mitochondrial membrane potential loss in human PC-3 cells at IC50 concentration after 72 hrs by flow cytometry; format: functional, cell-based
[11] = system: WiDr; assay: Induction of cell cycle arrest in human WiDr cells assessed as pre-G0/G1 phase at 40 uM measured after 72 hrs by propidium iodide based assay relative to control; format: functional
[12] = system: WiDr; assay: Induction of cell cycle arrest in human WiDr cells assessed as G2/M phase at 40 uM measured after 72 hrs by propidium iodide based assay relative to control; format: functional
[13] = system: WiDr; assay: Induction of oxidative stress in human WiDr cells assessed as increase in peroxide level at IC50 concentration incubated for 24 hrs by DCFH2 based green fluorescence assay; format: functional, cell-based
[14] = system: PC-3; assay: Induction of oxidative stress in human PC-3 cells assessed as increase in peroxide level at 15 uM incubated for 24 hrs by DCFH2 based green fluorescence assay; format: functional, cell-based
[15] = system: WiDr; assay: Induction of oxidative stress in human WiDr cells assessed as increase in superoxide anion level at 15 uM incubated for 24 hrs by DHE based red fluorescence assay; format: functional, cell-based
[16] = system: PC-3; assay: Induction of apoptosis in human PC-3 cells assessed as increase in BAX/BCL-2 ratio at IC50 concentration measured after 72 hrs; format: functional, cell-based
[17] = system: WiDr; assay: Induction of apoptosis in human WiDr cells assessed as increase in BAX/BCL-2 ratio at IC50 concentration measured after 72 hrs; format: functional, cell-based
[18] = system: WiDr; assay: Induction of oxidative stress in human WiDr cells assessed as increase in superoxide anion level at IC50 concentration incubated for 24 hrs by DHE based red fluorescence assay; format: functional, cell-based
[19] = system: PC-3; assay: Effect on GSH expression in human PC-3 cells incubated for 24 hrs by mercury orange based red fluorescence assay; format: functional, cell-based
[20] = system: PC-3; assay: Induction of cell cycle arrest in human PC-3 cells assessed as pre-G0/G1 phase at 40 uM measured after 72 hrs by propidium iodide based assay relative to control; format: functional
[21] = system: WiDr; assay: Induction of mitochondrial membrane potential loss in human WiDr cells at IC50 concentration after 72 hrs by flow cytometry; format: functional, cell-based
[22] = system: PC-3; assay: Induction of apoptosis in human PC-3 cells assessed as late apoptotic/necrotic cells at 50 uM measured after 72 hrs by annexin-V and propidium iodide staining based flow cytometry analysis; format: functional
[23] = system: WiDr; assay: Antiproliferative activity aginst human WiDr cells assessed as reduction in cell viability at IC50 concentration measured after 72 hrs by annexin -V and propidium iodide staining based flow cytometry analysis; format: functional
[24] = system: WiDr; assay: Effect on GSH expression in human WiDr cells incubated for 24 hrs by mercury orange based red fluorescence assay; format: functional, cell-based
[25] = system: WiDr; assay: Induction of oxidative stress in human WiDr cells assessed as increase in peroxide level at 15 uM incubated for 24 hrs by DCFH2 based green fluorescence assay; format: functional, cell-based
[26] = system: PC-3; assay: Induction of oxidative stress in human PC-3 cells assessed as increase in superoxide anion level at IC50 concentration incubated for 24 hrs by DHE based red fluorescence assay; format: functional, cell-based
[27] = system: PC-3; assay: Induction of cell cycle arrest in human PC-3 cells assessed as G0/G1 phase measured after 72 hrs by cell cycle analysis relative to control; format: functional
[28] = system: WiDr; assay: Induction of apoptosis in human WiDr cells assessed as late apoptotic/necrotic cells at 50 uM measured after 72 hrs by annexin-V and propidium iodide staining based flow cytometry analysis; format: functional, cell-based
[29] = system: PC-3; assay: Induction of apoptosis in human PC-3 cells assessed as apoptotic cells at IC50 concentration measured after 72 hrs by annexin-V and propidium iodide staining based flow cytometry analysis; format: functional
[30] = system: PC-3; assay: Induction of apoptosis in human PC-3 cells assessed as apoptotic cells at 50 uM measured after 72 hrs by annexin-V and propidium iodide staining based flow cytometry analysis; format: functional
[31] = system: PC-3; assay: Induction of apoptosis in human PC-3 cells assessed as fold increase in BAX/BCL-2 ratio at 50 uM measured after 72 hrs relative to control; format: functional
[32] = system: PC-3; assay: Induction of mitochondrial membrane potential loss in human PC-3 cells at 50 uM after 72 hrs by flow cytometry; format: functional
[33] = system: PC-3; assay: Cytotoxicity against human PC-3 cells assessed as cell viability measured after 72 hrs by MTS assay; format: functional, cell-based; details: PC-3, 72 h

What does the source list for CC(C)C(=O)Nc1ccc([N+](=O)[O-])c(C(F)(F)F)c1 [FLUTAMIDE]?
IC50 [1]: > 500 µM; IC50 [2]: 58 µM

Which IC50 [2] does the source give for C[C@]12CC[C@H]3[C@@H](CC[C@@]45O[C@@H]4CCC[C@]35C)[C@@H]1CCC2=O here?
The IC50 was 62.1 µM.

What about the IC50 [3] of the same compound?
Its IC50 is 42.4 µM.

What about the IC50 [4] of the same compound?
Its IC50 is 59.1 µM.

For C[C@]12CCC=C[C@@H]1CC[C@@H]1[C@@H]2CC[C@]2(C)C(=O)CC[C@@H]12, which IC50 [2] is on record?
The IC50 was 23.1 µM.

And the IC50 [3]?
Its IC50 is 15 µM.

For C[C@]12CC[C@H]3[C@@H](CC[C@@]45O[C@@H]4CCC[C@]35C)[C@@H]1CC/C2=N\O, which IC50 [3] is on record?
Its IC50 is 52.7 µM.

What about the IC50 [4] of the same compound?
The IC50 was 53.4 µM.

With C[C@]12CCC=C[C@@H]1CC[C@@H]1[C@@H]2CC[C@]2(C)/C(=N/O)CC[C@@H]12 as the compound, how does the Activity [5] read?
Its Activity is 49.94%.

And the Activity [6]?
Its Activity is 72.74%.

What about the IC50 [1] of the same compound?
Its IC50 is 18.6 µM.

What about the IC50 [7] of the same compound?
Its IC50 is 31.7 µM.

What about the IC50 [2] of the same compound?
The IC50 was 13.8 µM.

What about the Activity [8] of the same compound?
Its Activity is “Active”.

And the Activity [9]?
The Activity was “Active”.

And the Activity [10]?
Its Activity is “Active”.

What about the Activity [11] of the same compound?
The Activity was “Active”.

What about the Activity [12] of the same compound?
Its Activity is “Active”.

And the Activity [13]?
The Activity was “Active”.

And the Activity [14]?
Its Activity is “Active”.

What about the Activity [15] of the same compound?
Its Activity is “Active”.

And the Activity [16]?
Its Activity is “Active”.

And the IC50 [3]?
The IC50 was 23.9 µM.

What about the Activity [17] of the same compound?
Its Activity is “Active”.

And the Activity [18]?
The Activity was “Active”.

What about the Activity [19] of the same compound?
Its Activity is “inactive”.

What about the Activity [20] of the same compound?
The Activity was “Active”.

What about the Activity [21] of the same compound?
Its Activity is “Active”.

And the Activity [22]?
The Activity was 18.01%.

What about the Activity [23] of the same compound?
The Activity was 47.67%.

And the Activity [24]?
The Activity was “inactive”.

What about the Activity [25] of the same compound?
The Activity was “Active”.

And the Activity [26]?
The Activity was “Active”.

And the IC50 [4]?
Its IC50 is 9.1 µM.

What about the Activity [27] of the same compound?
The Activity was 9.66%.

How did the IC50 [1] turn out when COc1cc([C@@H]2c3cc4c(cc3[C@@H](O[C@@H]3O[C@@H]5CO[C@@H](C)O[C@H]5[C@H](O)[C@H]3O)[C@H]3COC(=O)[C@H]23)OCO4)cc(OC)c1O [ETOPOSIDE] was run?
The IC50 was 230 µM.

Which results are given for C[C@]12CCCC=C1CC[C@@H]1[C@@H]2CC[C@]2(C)C(=O)CC[C@@H]12?
IC50 [1]: 21.5 µM; IC50 [2]: 21.5 µM; IC50 [3]: 17.7 µM; IC50 [4]: 28 µM

Which Activity [6] does the source give for C[C@]12CCCC=C1CC[C@@H]1[C@@H]2CC[C@]2(C)/C(=N/O)CC[C@@H]12 here?
Its Activity is 75.46%.

What about the IC50 [1] of the same compound?
The IC50 was 19.2 µM.

What about the Activity [28] of the same compound?
Its Activity is “Active”.

What about the Activity [29] of the same compound?
Its Activity is 6.25%.

What about the IC50 [7] of the same compound?
The IC50 was greater than 75 µM.

What about the IC50 [2] of the same compound?
Its IC50 is 14.5 µM.

And the Activity [8]?
Its Activity is “Active”.

What about the Activity [9] of the same compound?
The Activity was “Active”.

And the Activity [10]?
Its Activity is “Active”.

What about the Activity [30] of the same compound?
Its Activity is 32.37%.

And the Activity [11]?
The Activity was “Active”.

And the “fold change (FC)” value [31]?
The value was 1.51.

And the Activity [13]?
Its Activity is “Active”.

What about the “fold change (FC)” value [32] of the same compound?
Its value is 3.66.

And the Activity [14]?
Its Activity is “Active”.

And the Activity [15]?
The Activity was “Active”.

And the IC50 [3]?
The IC50 was 18.2 µM.

And the Activity [18]?
Its Activity is “Active”.

And the Activity [19]?
Its Activity is “inactive”.

What about the Activity [20] of the same compound?
The Activity was “Active”.

What about the Activity [21] of the same compound?
Its Activity is “Active”.

What about the Activity [23] of the same compound?
The Activity was 38.67%.

And the Activity [24]?
Its Activity is “inactive”.

What about the Activity [25] of the same compound?
The Activity was “Active”.

What about the Activity [26] of the same compound?
Its Activity is “Active”.

And the IC50 [4]?
Its IC50 is 16.1 µM.

Which IC50 [33] does the source give for CC(C)CCC[C@@H](C)[C@H]1CC[C@H]2[C@@H]3C/C(=N\O)C4C[C@@H](O)CC[C@]4(C)[C@H]3CC[C@]12C (some centres not stated) here?
The IC50 was 49.8 µM.

Which results are given for C[C@]12CC[C@H]3O[C@H]3[C@@H]1CC[C@@H]1[C@@H]2CC[C@]2(C)/C(=N/O)CC[C@@H]12?
IC50 [2]: 77.9 µM; IC50 [3]: 64.3 µM; IC50 [4]: 75 µM

How did the IC50 [2] turn out when C[C@]12CC[C@H]3O[C@H]3[C@@H]1CC[C@@H]1[C@@H]2CC[C@]2(C)C(=O)CC[C@@H]12 was run?
The IC50 was 46.8 µM.

What about the IC50 [3] of the same compound?
Its IC50 is 32.6 µM.

And the IC50 [4]?
The IC50 was 60.9 µM.

Which results are given for O=c1[nH]cc(F)c(=O)[nH]1 [FLUOROURACIL]?
IC50 [3]: 19 µM; IC50 [4]: 10.5 µM

CCc1c2c(nc3ccc(OC(=O)N4CCC(N5CCCCC5)CC4)cc13)-c1cc3c(c(=O)n1C2)COC(=O)[C@]3(O)CC [IRINOTECAN] was tested. Which IC50 [4] did it give?
The IC50 was 13.9 µM.
